Experimental data published in patent publication US8324267B2, “Kinase inhibitors and the use thereof” (Forschungzentrum Karlsruhe GmbH, priority 2001, dated 2012).
“Also recorded” adds a separate entry of the source.

Key:
VEGFR-2 = VEGFR-2 (Homo sapiens, UniProt P35968); test: Ligand-induced autophosphorylation in VEGFR-2-expressing PAE cells (immunoprecipitation, Western blot); type: cell-based; conditions: PAE/VEGFR-2 cells, VEGF stimulated; 0.5, 5 or 50 μM; FIG. 1
Method: (§1) VEGFR-2- and VEGFR-3-expressing PAE cells (pig aorta endothel cells) were incubated with 0.5 μM, 5 μM or 50 μM of the appropriate test compound. The cells were then stimulated with VEGF (VEGFR-2) or VEGF-C (VEGFR-3) or without growth factor as negative control. The cells were harvested after 15 min and immunoprecipitated with VEGFR-2 or VEGFR-3. The immunoprecipitates were blotted after electrophoresis and investigated with anti-phosphotyrosine antibody. The blots were detached and investigated with VEGFR-2 or VEGFR-3 antibody to check the loading.
(§2) PAE/VEGFR-2 or PAE/VEGFR-3 were seeded in 15 cm tissue culture tissues and cultivated to 50% confluence. The cells were then starved in serum-free medium (with 0.2% BSA) for 16-24 h (PAE/VEGFR-3) or 72 h […]. After preincubation with 5 ml of 1 mM serum-free medium (1 mM Na3VO4) and various inhibitor concentrations for 30-60 min, the cells were stimulated at 37° C. for 5 min (VEGFR-3) or 8 min (VEGFR-2). The cells were then rapidly washed twice with ice-cold PBS (with 1 mM Na3VO4) and lysed with ice-cold modified RIPA buffer (30 mM Tris-HCl, pH 7.4, 150 mM NaCl, 1 mM EDTA, 0.5% (v/v) Triton X100, 0.5% (w/v) sodium deoxycholate, 10 mM NaF) freshly prepared with 1 mM PMSF, 0.1 U/ml aprotinin, 10 ng/ml leupeptin and 5 mM Na3VO4. The cells were harvested from the plate with the aid of a rubber policeman and collected in centrifuge tubes on ice. The lysates were solubilized by forcing through a syringe with a 25 G needle, and were centrifuged at 4° C./13 000 rpm for 15 min to remove insoluble constituents.
(§3) The clear lysates were incubated with 4 μg of anti-VEGFR-2 (C-1158, Santa Cruz) or […] at 4° C. overnight.
The receptor-antibody complex was precipitated by adding 30 μl of protein A-Sepharose (Amersham)/tube and incubating at 4° C. for a further 2 hours. […]

VEGFR-3 = VEGFR-3 (Homo sapiens, UniProt P35916); test: Ligand-induced autophosphorylation in VEGFR-3-expressing PAE cells (immunoprecipitation, Western blot); type: cell-based; conditions: for inhibition of ligand-induced autophosphorylation of VEGFR-3: PAE/VEGFR-3 cells, VEGF-C stimulated, 0.5, 5 or 50 μM, FIG. 1
Method: as §1, §2, §3
The receptor-antibody complex was precipitated by adding 30 μl of protein A-Sepharose (Amersham)/tube and incubating at 4° C. for a further 2 hours.
The Sepharose were then centrifuged at 4° C. for 1 min and washed three times with cold washing buffer (30 mM Tris-HCl, pH 7.4, 150 mM NaCl, 1 mM EDTA, 0.5% (v/v) Triton X100, 0.5% (w/v) sodium deoxycholate, 10 mM NaF) freshly prepared with 1 mM PMSF, 0.1 U/ml aprotinin, 10 ng/ml leupeptin and 5 mM Na3VO4. The remainder of the washing buffer was removed by aspiration through a syringe provided with a 27 G needle. The Sepharose beads were resuspended in 50 μl of SDS loading buffer, boiled and loaded onto a 6% […] gel. After the electrophoretic fractionation, the proteins were fixed on an appropriate membrane by Western blotting. The blots were investigated first with the aid of an anti-phosphotyrosine antibody (RC20:HRPO, Becton Dickinson) and then the first antibody was removed again in order to investigate the blot for the protein loading with specific anti-receptor antibodies. […]

[1] = system: chorioallantoic membrane (CAM); test: Chorioallantoic membrane (CAM) angiogenesis assay; type: in vivo; conditions: chick embryos, 100 μg of inhibitor on methylcellulose disk, day 5 to day 7; FIG. 3
Method: The chorioallantoic membrane (CAM) assay was carried out as described (Wernert et al.) with chick embryos 5 days after fertilization. Methylcellulose disks (diameter 2 mm) with 100 μg of inhibitor were applied to the CAMs. Evaluation took place on day 7. A. negative control B. MAE 106-treated egg.
FIG. 3: Inhibition of angiogenesis in a chorioallantoic membrane (CAM). A: sham-treated cells (control). B: Mae106-treated cells of the CAM.

rat carcinoma cell lines = test: Apoptosis in rat tumor cell lines, nucleosome ELISA; type: cell-based; conditions: 2.5 μM or 10 μM, 24 h, FIG. 6
Method: Cells of the rat tumor cell line (Nestl et al., 2001, Cancer Research 61: 1569-1577) were cultivated in the presence of 1% DMSO (solvent control), 2.5 μM or 10 μM of the indolinone for 24 h. Apoptosis was quantified with the aid of anti-DNA peroxidase antibody. The amount of dye produced in the chromogenic reaction catalyzed by the peroxidase was measured by photometry at 405 nm and correlated with the amount of apoptosis-associated cytoplasmic mono- and oligonucleosomes. The data are stated in % apoptosis relative to the cells of the solvent control (% relative to control) (FIG. 6).
FIG. 6: Nucleosome ELISA test (Cell Death Detection ELISA). The extent of dead cells of the respective rat tumor cell line is depicted (apoptosis in %) in relation to the use of the inhibitors MAE87, MAE106 and MAZ51.

Sequence of VEGFR-2 (P35968 20-1356): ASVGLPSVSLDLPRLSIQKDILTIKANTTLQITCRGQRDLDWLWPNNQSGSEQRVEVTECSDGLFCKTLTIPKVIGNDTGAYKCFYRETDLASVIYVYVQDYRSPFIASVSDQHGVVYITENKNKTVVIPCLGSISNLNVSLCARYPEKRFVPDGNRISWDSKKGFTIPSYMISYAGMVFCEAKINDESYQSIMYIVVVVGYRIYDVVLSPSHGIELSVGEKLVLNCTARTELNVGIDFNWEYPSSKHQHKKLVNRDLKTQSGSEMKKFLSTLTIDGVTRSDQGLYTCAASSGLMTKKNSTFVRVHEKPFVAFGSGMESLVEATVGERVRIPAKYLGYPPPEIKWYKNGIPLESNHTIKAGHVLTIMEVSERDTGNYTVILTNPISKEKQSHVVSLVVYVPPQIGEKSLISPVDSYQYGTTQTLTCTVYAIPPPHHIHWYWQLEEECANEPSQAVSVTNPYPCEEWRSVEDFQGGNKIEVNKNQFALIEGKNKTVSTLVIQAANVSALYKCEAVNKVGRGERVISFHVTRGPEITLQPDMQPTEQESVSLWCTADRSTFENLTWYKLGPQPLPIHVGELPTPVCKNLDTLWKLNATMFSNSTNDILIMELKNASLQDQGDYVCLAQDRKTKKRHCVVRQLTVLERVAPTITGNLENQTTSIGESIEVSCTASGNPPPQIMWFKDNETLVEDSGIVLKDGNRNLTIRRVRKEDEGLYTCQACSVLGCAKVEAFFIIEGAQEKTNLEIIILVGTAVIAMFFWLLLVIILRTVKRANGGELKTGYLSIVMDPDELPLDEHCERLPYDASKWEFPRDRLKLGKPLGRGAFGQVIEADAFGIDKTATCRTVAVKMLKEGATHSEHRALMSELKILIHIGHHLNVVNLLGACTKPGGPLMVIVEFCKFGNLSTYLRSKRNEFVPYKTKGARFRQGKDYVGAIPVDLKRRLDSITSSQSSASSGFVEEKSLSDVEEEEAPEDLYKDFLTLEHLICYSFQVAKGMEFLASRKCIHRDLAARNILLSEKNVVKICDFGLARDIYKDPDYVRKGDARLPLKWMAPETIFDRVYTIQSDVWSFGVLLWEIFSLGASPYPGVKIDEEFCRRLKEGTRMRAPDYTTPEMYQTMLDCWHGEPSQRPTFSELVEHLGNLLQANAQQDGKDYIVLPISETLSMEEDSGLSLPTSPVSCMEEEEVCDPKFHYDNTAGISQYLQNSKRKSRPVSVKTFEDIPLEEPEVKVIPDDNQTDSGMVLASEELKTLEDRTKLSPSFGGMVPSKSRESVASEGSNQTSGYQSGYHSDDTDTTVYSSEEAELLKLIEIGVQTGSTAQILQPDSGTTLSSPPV
Sequence of VEGFR-3 (P35916 25-1363): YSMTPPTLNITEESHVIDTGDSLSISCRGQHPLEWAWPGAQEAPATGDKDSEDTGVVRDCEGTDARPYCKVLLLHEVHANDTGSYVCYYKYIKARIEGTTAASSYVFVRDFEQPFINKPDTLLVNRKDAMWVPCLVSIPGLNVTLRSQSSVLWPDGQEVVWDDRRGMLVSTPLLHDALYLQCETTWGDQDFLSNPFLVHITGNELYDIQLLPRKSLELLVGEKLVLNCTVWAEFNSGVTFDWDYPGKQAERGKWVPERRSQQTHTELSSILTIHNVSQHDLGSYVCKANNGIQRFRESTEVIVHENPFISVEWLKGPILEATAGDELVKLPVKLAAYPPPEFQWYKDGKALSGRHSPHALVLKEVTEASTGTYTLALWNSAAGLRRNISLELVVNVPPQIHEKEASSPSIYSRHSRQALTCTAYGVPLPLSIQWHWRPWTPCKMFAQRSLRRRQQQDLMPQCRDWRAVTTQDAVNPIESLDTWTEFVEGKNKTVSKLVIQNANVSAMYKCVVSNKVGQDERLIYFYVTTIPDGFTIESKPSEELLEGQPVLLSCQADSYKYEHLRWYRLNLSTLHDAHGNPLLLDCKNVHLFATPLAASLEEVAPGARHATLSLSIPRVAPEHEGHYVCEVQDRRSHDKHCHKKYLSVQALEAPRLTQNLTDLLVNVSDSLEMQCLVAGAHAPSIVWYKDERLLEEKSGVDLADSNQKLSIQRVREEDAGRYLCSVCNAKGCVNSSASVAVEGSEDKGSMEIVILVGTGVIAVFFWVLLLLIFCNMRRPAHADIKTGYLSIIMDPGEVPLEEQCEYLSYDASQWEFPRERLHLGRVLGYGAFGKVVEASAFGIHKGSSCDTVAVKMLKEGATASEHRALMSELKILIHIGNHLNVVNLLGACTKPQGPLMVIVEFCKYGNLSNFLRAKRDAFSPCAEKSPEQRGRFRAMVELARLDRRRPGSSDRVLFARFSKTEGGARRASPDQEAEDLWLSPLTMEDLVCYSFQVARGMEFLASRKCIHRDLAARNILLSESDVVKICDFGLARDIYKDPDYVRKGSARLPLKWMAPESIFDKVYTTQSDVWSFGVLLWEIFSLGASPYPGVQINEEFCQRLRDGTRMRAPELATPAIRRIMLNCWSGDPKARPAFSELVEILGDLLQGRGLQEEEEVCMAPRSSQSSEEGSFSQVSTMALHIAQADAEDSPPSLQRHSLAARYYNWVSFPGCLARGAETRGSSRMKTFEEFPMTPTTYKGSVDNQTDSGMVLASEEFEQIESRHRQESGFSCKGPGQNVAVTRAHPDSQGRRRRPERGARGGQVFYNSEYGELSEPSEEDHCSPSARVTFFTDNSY

| Compound | inhibition of ligand-induced autophosphorylation of VEGFR-2 (VEGFR-2) | inhibition of ligand-induced autophosphorylation of VEGFR-3 (VEGFR-3) | inhibition of angiogenesis (network of blood vessels) in the CAM [1] | induction of apoptosis (% relative to solvent control) (rat carcinoma cell lines) | selectivity of inhibition of autophosphorylation, VEGFR-3 versus VEGFR-2 (VEGFR-3; 5 μM, PAE cells) |
| --- | --- | --- | --- | --- | --- |
| COc1ccc(C=C2C(=O)Nc3ccccc32)cc1F [MAE106, 3-(3-Fluoro-4-methoxybenzylidene)-1,3-dihydroindole-2-one] | Inhibit the Ligand-Induced Autophosphorylation | Inhibit the Ligand-Induced Autophosphorylation | highly underdeveloped | induce cell death |  |
| O=C1Nc2ccccc2C1=Cc1ccc(O)cc1O [MAE87, 3-(2,4-Dihydroxybenzylidene)-1,3-dihydroindol-2-one] | Inhibit the Ligand-Induced Autophosphorylation | Inhibit the Ligand-Induced Autophosphorylation | Inhibit Angiogenesis | induce cell death |  |
| CN(C)c1ccc(C=C2C(=O)Nc3ccccc32)c2ccccc12 [MAZ51, 3-(4-Dimethylaminonaphthalen-1-ylmethylene)-1,3-dihydroindol-2-one] | Inhibit the Ligand-Induced Autophosphorylation | Inhibit the Ligand-Induced Autophosphorylation | Inhibit Angiogenesis | most potent apoptosis inducer; also recorded: induce cell death | selectively inhibits VEGFR-3 |
